Experimental findings from patent publication US20220304862A1, “Method And Device For Substance Delivery To The Inner Ear” (UNIVERSITY OF BRIGHTON, priority 2019, published 2022) are described below.

The data set has as its system auditory nerve.

Protocol: Pigmented guinea pigs of similar weight (350-360 g) were anaesthetised with the neurolept anaesthetic technique (0.06 mg/kg body weight atropine sulphate s.c., 30 mg/kg pentobarbitone i.p., 500 μl/kg Hypnorm i.m.). Additional injections of Hypnorm were given every 40 minutes. Additional doses of pentobarbitone were administered as needed to maintain a non-reflexive state. The heart rate was monitored with a pair of skin electrodes placed on both sides of the thorax. The animals were tracheotomized and artificially respired, and their core temperature was maintained at 38° C. with a heating blanket and a heated head holder.
The middle ear cavity of the ear used for the measurements was opened to reveal the round window. Compound action potentials of the auditory nerve were measured from the cochlear bony ridge in the proximity of the round window membrane using Teflon-coated silver wire coupled to laboratory designed and built extracellular amplifier (James Hartley). Thresholds of the N1 peak of the compound action potentials were estimated visually using 10 ms tone stimuli at a repetition rate of 10 Hz.
For acoustic stimulation sound was delivered to the tympanic membrane by a closed acoustic system comprising two Bruel and Kjaer 4134½″ microphones for delivering tones and a single Bruel and Kjaer 4133½″ microphone for monitoring sound pressure at the tympanum. The microphones were coupled to the ear canal via 1 cm long, 4 mm diameter tubes to a conical speculum, the 1 mm diameter opening of which was placed about 1 mm from the tympanum. The closed sound system was calibrated in situ for frequencies between 1 and 50 kHz. Known sound pressure levels were expressed in dB SPL re 2×10^−5 Pa. All acoustic stimuli in this work were shaped with raised cosines of 0.5 ms duration at the beginning and at the end of stimulation. White noise for acoustical calibration and tone sequences for auditory stimulation were synthesised by a Data Translation 3010 board at 250 kHz sampling rate and delivered to the microphones through low-pass filters (100 kHz cut-off frequency). Signals from the acoustic measuring amplifier (James Hartley) were digitised at 250 kHz sampling rate using the same board and averaged in the time domain. Experimental control, data acquisition and data analysis were performed using a PC with programmes written in MATLAB.
The solution was removed from the round window using paper wicks to observe the wash out effect. […]
In the second experiments, the placement of the same volume of salicylate solution on the round window was followed by stimulation of the ear with oscillating air pressure in the ear canal during a 5-minute period with a consecutive 5-minute period without oscillating air pressure stimulation when the auditory nerve thresholds were measured. […]

Regarding `O=C([O-])c1ccccc1O.[Na+]` [salicylate, sodium salicylate], the “time after which the salicylate effect saturated” value (oscillating pressure 4 Hz in ear canal, total pressure stimulation time, excluding the 5-minute no-pressure periods) lay within 15 to 20 min. The “effect of salicylate on the auditory nerve threshold” value (passive diffusion, 5 μl of 100 mM on round window, tone frequencies lower than 5 kHz (approximately apical 55% of cochlear length), FIG. 2A) is reported as “no effect”. For the same compound, the “increase of threshold response to pure tones with oscillating pressure versus passive diffusion” value (tones 27, 21, 15, 11, 5, 3 and 1 kHz, particularly low frequencies, pooled data of 5 experiments per protocol, FIG. 4) is “to a far greater extent”. Moreover, the “recovery of compound action potential thresholds after washing out of salicylate from the round window” value (washout after 80 min (passive) or 74 min (oscillating pressure), FIG. 2) is given as “Partial recovery”.
